Data taken from ChEMBL document CHEMBL1125599, “Cholinergic activity of acetylenic imidazoles and related compounds” (J Med Chem, 1991).

Key:
Mus musculus [1] = assay: ED50 value as cholinergic agonist by measuring salivation in mice (in vivo); format: functional
Mus musculus [2] = assay: ED50 value as cholinergic agonist by measuring tremors in mice (in vivo); format: functional
[3] = molecular target: Muscarinic acetylcholine receptor; assay: Binding affinity to muscarinic acetylcholine receptor was determined in presence of [3H]QNB radioligand (in vitro); format: protein assay
Mus musculus [4] = assay: ED50 value as cholinergic agonism by measuring lacrimation in mice (in vivo); format: functional
Mus musculus [5] = assay: ED50 value determined as oxotremorine antagonism by measuring salivation in mice (in vivo); format: functional
[6] = molecular target: Muscarinic acetylcholine receptor; assay: Binding affinity to muscarinic acetylcholine receptor was determined in presence of [3H]OXO-M radioligand (in vitro); format: protein assay
Mus musculus [7] = assay: ED50 value determined as oxotremorine antagonism by measuring lacrimation in mice (in vivo); format: functional
[8] = molecular target: Muscarinic acetylcholine receptor (Rattus norvegicus) (UniProt P08482+P08483+P08485+P08911+P10980); assay: Ratio of Ki value for QNB to that of Ki value for Oxo-M.; format: protein assay

SMILES | Ki [3] [nM] | Ki [6] [nM] | ED50 (Mus musculus [1]) [mg/kg] | ED50 (Mus musculus [2]) [mg/kg] | ED50 (Mus musculus [4]) [mg/kg] | ED50 (Mus musculus [5]) [mg/kg] | ED50 (Mus musculus [7]) [mg/kg] | Ki ratio [8]
CC(C#CCN1CCCC1)N1CCN(C)C1=O (configuration not stated) | 130 | 13 | > 30 | > 30 | > 30 | 25 | 4.5 | 10
CN(C)CC#CCN1CCCC1=O | 2600 | 1.1 | – | – | – | – | – | 2360
CN1CCN(CC#CCN2CCCC2)C1=O | 180 | 2.7 | 0.21 | 0.14 | 0.3 | > 3 | > 3 | 67
CN(C)CC#CCn1ccn(C)c1=O | > 10000 | 37 | 8 | 5.4 | 8 | > 100 | > 100 | –
CN(C)CC#CCN1CCNC1=O | > 10000 | 43 | 9.7 | 9.7 | 9.7 | > 100 | > 100 | –
O=C1CCCN1CC#CCN1CCCC1 [OXOTREMORINE] | 193 | – | 0.221 | – | 0.28 | – | – | 386
Cn1ccn(CC#CCN2CCCC2)c1=O | 510 | 7.1 | 6.6 | 3.7 | 6.6 | > 10 | > 10 | 72
CC(=O)N(C)C(C)C#CCN1CCCC1 (configuration not stated) | – | – | 0.55 | > 10 | 0.66 | > 10 | > 10 | –
CN(C)CC#CCN1CCN(C)C1=O | 180 | 4.5 | 0.54 | 0.37 | 0.54 | > 10 | > 10 | 40

More lines, main results first:

Ki [3] [nM] | Ki [6] [nM] | SMILES | ED50 (Mus musculus [1]) [mg/kg] | ED50 (Mus musculus [2]) [mg/kg] | ED50 (Mus musculus [4]) [mg/kg] | ED50 (Mus musculus [5]) [mg/kg] | ED50 (Mus musculus [7]) [mg/kg] | Ki ratio [8]
19 | 1.6 | CC(=O)N(C)C(C)C#CCn1ccnc1C (configuration not stated) | > 100 | > 100 | > 100 | 0.2 | 0.05 | 12
600 | 1.3 | O=C1CCCN1CC#CCn1ccnc1 | 0.45 | 0.45 | 0.45 | > 100 | > 100 | 460
184 | 10 | CC(=O)N(C)C(C)C#CCn1cncc1C (configuration not stated) | > 100 | > 100 | > 100 | 3.7 | 1.1 | 18
160 | 68 | Cc1cn(CC#CCN2CCCC2=O)c(C)n1 | > 100 | > 100 | > 100 | 14.2 | 8 | 2.4
556 | 33.5 | CC(C#CCn1ccnc1)N1CCCC1=O (configuration not stated) | > 100 | > 100 | > 100 | 3.7 | 2 | 17
171 | 23 | CC1CCC(=O)N1CC#CCn1ccnc1 (configuration not stated) | > 100 | > 100 | > 100 | 1.1 | 0.54 | 7.4
> 10000 | 35 | Cn1ccn(CC#CCn2ccnc2)c1=O | 3.7 | 4.5 | 4.4 | > 100 | > 100 | –
> 10000 | 1.92 | CC(=O)N(C)CC#CCn1ccnc1 | 1.4 | 0.97 | 1.4 | > 100 | > 100 | –
> 10000 | 10.2 | COC(=O)N(C)CC#CCn1ccnc1 | 4.5 | 2 | 4.5 | > 100 | > 100 | –
